Patent US20230364204A1, “Bioactive Peptides, Compositions, Production Process, and Use of Bioactive Peptides as Anti-Tumoral Agents” (priority 2022, published 2023)

Tests used:
[1] = test system: benign skin cells - fibroblasts (HDFa); experiment: MTT cell viability, benign fibroblasts; type: cell-based; details: HDFa fibroblasts, 24, 48 and 72 h
Method: (§1) For the method of MTT, the cells were plated in 96-well sterile plates for cell culture with a cap at the density of 2 × 10^4 cells/well for treatments lasting 24 h and 1 × 10^4 cells/well for treatments lasting 48 h or more, completing the volume to 100 µL with culture medium. The plates were incubated for 8-16 h in an incubator at 37° C. and 5% CO2. The next day, the treatments were prepared in culture medium, applying 200 µL/well at the desired concentration, and the plates were placed in an incubator at 37° C. and 5% CO2for the duration of treatment. After the treatment period, 20 µL/well of a MTT solution was added in PBS (1×) at a concentration of 5 mg/mL, and the dye was incubated at 37° C. and 5% CO2 for 2.5 h. After incubation with MTT, Formazan salts were solubilized with the addition of 200 µL of dimethylsulfoxide solution (DMSO): isopropanol (3:1) and agitated for at least 15 minutes at room temperature. After complete dissolution of the salts, the absorbance was read in a spectrophotometer at 570 nm with endpoint protocol.
(§2) The calculation of cell viability was performed using the formula: […]
(§3) O.D.: optical density captured by spectrophotometer
NOTE: The Basal O.D. is the one found in the blank wells. […]

MDAMB231 cell line [2] = experiment: Cell cycle progression (propidium iodide flow cytometry); type: cell-based; details: MDAMB231, 48 h, highest dosage
Method: For cell cycle progression method, cells were plated in 6-well sterile plates for cell culture with a cap at the density of 2.5 × 10^5 cells/well for treatments lasting 24 h or more, completing the volume with 1000 µL culture medium. The plates were incubated for 8-16 h in an incubator at 37° C. and 5% CO2. The next day, the treatments were prepared in culture medium, applying 2000 µL/well at the desired concentration, and the plates were placed in an incubator at 37° C. and 5% CO2 for the duration of treatment. After the treatment period, cells were collected in a conic 15 mL tube and washed with 1000 µL of PBS (1×). Cells were resuspended in 500 µL/tube of PBS (1×) and 4.5 mL of Ethanol 70°. Then, tubes were closed and kept at 2-4° C. for up to 2 months. Cells were washed with PBS (1×) and resuspended with 135 µL of PBS (1×). A solution of RnaseA at 100 µg/mL was added and incubated at RT for 30 minutes. After incubation, cells were labeled with 2 µL of Propidium Iodide at 100 µg/mL and read at the flow cytometer for size and DNA content.
In order to determine the effects of the peptide in cell cycle progression (MDAMB231 cell line), the Analysis of Variance (ANOVA) with Dunnet post-hoc test was applied to the significance of 5% in GraphPad Prism software version 6.0.

MDAMB231 cell line [3] = experiment: Apoptosis/necrosis flow cytometry (Annexin V-FITC / propidium iodide); type: cell-based
Source text: Annexin V is a potent marker for apoptosis since it binds to the phosphatidylserine of the cell membrane. This binding only occurs when the phosphatidylserine is externalized in the membrane, which is one of the first signals of apoptosis death. Meanwhile propidium iodide only enters the cells after a membrane rupture and can indicate a final step to cell death. The double labeling with these markers allows to distinguish apoptosis and necrosis death through the following characterization: • Annexin V^- / Pl^-: live cells • Annexin V^+ / Pl^-: cells in early apoptosis • Annexin V^+ / Pl^+: cell in late apoptosis • Annexin V^- / Pl^+: cells in necrosis
For Apoptosis/ Necrosis protocol, cells were plated 6-well sterile plates for cell culture with a cap at the density of 2.5 × 10^5 cells/well for treatments lasting 24 h or more, completing the volume with 1000 µL culture medium. The plates were incubated for 8-16 h in an incubator at 37° C. and 5% CO2. The next day, the treatments were prepared in culture medium, applying 2000 µL/well at the desired concentration, and the plate was placed in an incubator at 37° C. and 5% CO2 for the duration of treatment. After the treatment period, cells were collected in a conic 15 mL tube and washed with 200 µL of binding buffer (1×) from the FITC Annexin V Apoptosis Detection Kit I. Cells were resuspended in 100 µL/tube of binding buffer (1×) and 1 µL of Annexin V-FITC was added to each tube except the blank. Cells were then incubated for 20 min. in ice and in the dark. Then, 50 µL/tube of binding buffer was added and cells were labeled with 2 µL of Propidium Iodide (PI) at 100 µg/mL and read at the flow cytometer for size and fluorescent content (FITC and PI).
In order to determine the effects of the peptide in LDH release, autophagy induction and apoptosis/necrosis profile of MDAMB231 cell line, the Analysis of Variance (ANOVA) with Dunnet and Bonferroni post-hoc tests were applied to the significance of 5% in GraphPad Prism software version 6.0.

[4] = test system: MDAMB231 cells (triple negative); experiment: MTT cell viability, tumor cells; type: cell-based
Method: as §1, §2, §3
NOTE: The Basal O.D. is the one found in the blank wells.
In order to determine the efficacy (comparison of doses and times for the MDAMB231 cell line) and safety (comparison between the effects on MDAMB231 and HDFa cells) of the peptide SEQ ID 1 - MFYPDSRCRGPSET (C-terminal region of Crotoxin B), named 3-NAntC, the Analysis of Variance (ANOVA) with Bonferroni post-hoc test was applied to the significance of 5% in GraphPad Prism software version 6.0.

zebrafish embryos = experiment: Tolerability in zebrafish embryos; type: in vivo; details: even at a dose 50,000 times higher than the in vitro MDAMB231 IC50 at 24 h

CSCC[C@H](N)C(=O)N[C@@H](Cc1ccccc1)C(=O)N[C@@H](Cc1ccc(O)cc1)C(=O)N1CCC[C@H]1C(=O)N[C@@H](CC(=O)O)C(=O)N[C@@H](CO)C(=O)N[C@@H](CCCNC(=N)N)C(=O)N[C@@H](CS)C(=O)N[C@@H](CCCNC(=N)N)C(=O)NCC(=O)N1CCC[C@H]1C(=O)N[C@@H](CO)C(=O)N[C@@H](CCC(=O)O)C(=O)N[C@H](C(=O)O)[C@@H](C)O [3-NAntC, [H]-MFYPDSRCRGPSET-[OH]]
effect on viability of benign skin cells (MTT) [1]: not decreasing the viability | decrease in cells in G0/G1 (MDAMB231 cell line [2]): 8.72% | increase of G2/M percentage (MDAMB231 cell line [2]): 8.08% | percentage of cells in necrosis (MDAMB231 cell line [3]; MDAMB231, 24 and 48 h, 0.8 µg/mL): maintaining the percentage of cells in necrosis | increase of apoptosis rate (MDAMB231 cell line [3]; MDAMB231, 24 h, 0.8 µg/mL): about 20% | increase of apoptosis rate (MDAMB231 cell line [3]; MDAMB231, 48 h, 0.8 µg/mL): about 20% | increase of apoptosis rate (MDAMB231 cell line [3]; MDAMB231, 72 h, highest dosage): 28.73% | compared efficacy in decreasing MDAMB231 cells' viability (MTT, FIG. 13/14) ([4]; MDAMB231, SEQ IDs 2-10 compared to SEQ ID 1): highest antitumor effect | antitumor effect compared to Cisplatin (MTT) ([4]; MDAMB231, as early as 48 h of treatment): exceeds the antitumor effect of Cisplatin | embryo survival (zebrafish embryos): high embryo survival | tolerability in zebrafish embryos (zebrafish embryos): well tolerated
